Measurements from patent publication US10294275B2, “Site-selective functionalization of glycopeptide antibiotics” (Yale University, priority 2012, dated 2019).
In brackets after ≈: the same amount, converted by molar mass.

Key:
Assay type in all cases: cell-based
[1] = tested on: methicillin-resistant S. aureus, ATCC 43300; assay: Minimum inhibitory concentration against MRSA; details: for potency against MRSA strain, in words: compared with vancomycin and teicoplanin
Text: (§1) The chemistry described above enabled direct synthesis of eleven previously unknown analogs of 3. The minimum inhibitory concentrations (MICs) for the new analogs as antibacterial agents as determined.

[2] = tested on: methicillin-susceptible S. aureus, ATCC 29213; assay: Minimum inhibitory concentration against MSSA
Text: as §1

[3] = tested on: vancomycin-resistant enterococci (VanA), MMX 486; assay: Minimum inhibitory concentration against VRE (VanA)
Text: as §1

[4] = tested on: vancomycin-susceptible enterococci, ATCC 29212; assay: Minimum inhibitory concentration against VSE; details: vancomycin-susceptible enterococci, ATCC 29212
Text: as §1

[5] = tested on: vancomycin-resistant enterococci (VanB), ATCC 51299; assay: Minimum inhibitory concentration against VRE (VanB); details: vancomycin-resistant enterococci, ATCC 51299
Text: as §1

[6] = methicillin-resistant S. aureus, ATCC 43300
[7] = methicillin-susceptible S. aureus, ATCC 29213
[8] = MMX 486, vancomycin and teicoplanin resistant
[9] = compared with vancomycin and teicoplanin

Row | Molecule | MIC, MRSA [1, 6] [µg/mL] | MIC, MSSA [2, 7] [µg/mL] | MIC, VRE (VanA) [3, 8] [µg/mL] | MIC, VSE [4] [µg/mL] | MIC, VRE (VanB) [5] [µg/mL] | potency against MRSA strain, in words [1] | potency against MSSA strain, in words [2, 9] | activity against VRE (VanA) strain, in words [3, 9] | MIC ([1]; Staphylococcus aureus, methicillin-resistant S. aureus, ATCC 43300, read-out: MIC, MRSA) [µg/mL] | MIC ([2]; Staphylococcus aureus, methicillin-susceptible S. aureus, ATCC 29213, read-out: MIC, MSSA) [µg/mL] | MIC ([3]; Enterococcus, VRE, MMX 486, vancomycin and teicoplanin resistant, read-out: MIC, VRE (VanA)) [µg/mL] | MIC ([4]; read-out: MIC, VSE) [µg/mL] | MIC ([5]; Enterococcus, read-out: MIC, VRE (VanB)) [µg/mL]
1 | teicoplanin [reference compound] | 0.5 | 0.5 | >64 | 0.25 | 0.25 | – | – | – | – | – | – | – | –
2 | CC(=O)N[C@H]1[C@H](O[C@@H]2c3ccc(c(Cl)c3)Oc3cc4cc(c3O[C@@H]3O[C@H](CO)[C@@H](O)[C@H](O)[C@H]3NC(=O)CCCCCCC(C)C)Oc3ccc(cc3-c3ccoc3)C[C@H]3NC(=O)[C@H](N)c5ccc(O)c(c5)Oc5cc(O)c(-c6ccoc6)c(c5)[C@H](NC3=O)C(=O)N[C@H]4C(=O)N[C@H]3C(=O)N[C@@H]2C(=O)N[C@H](C(=O)O)c2cc(O)cc(O[C@H]4O[C@H](CO)[C@@H](O)[C@H](O)[C@@H]4O)c2-c2cc3ccc2O)O[C@H](CO)[C@@H](O)[C@@H]1O [Compound 15] | 0.25 (≈ 0.126 µM) | 0.25 (≈ 0.126 µM) | >32 | 0.12 (≈ 0.0607 µM) | 0.25 (≈ 0.126 µM) | – | – | – | – | – | – | – | –
3 | CC(=O)N[C@H]1[C@H](O[C@@H]2c3ccc(c(Cl)c3)Oc3cc4cc(c3O[C@@H]3O[C@H](CO)[C@@H](O)[C@H](O)[C@H]3NC(=O)CCCCCCC(C)C)Oc3ccc(cc3Cl)C[C@H]3NC(=O)[C@H](N)c5ccc(O)c(c5)Oc5cc(O)c(Br)c(c5)[C@H](NC3=O)C(=O)N[C@H]4C(=O)N[C@H]3C(=O)N[C@@H]2C(=O)N[C@H](C(=O)O)c2cc(O)cc(O[C@H]4O[C@H](CO)[C@@H](O)[C@H](O)[C@@H]4O)c2-c2cc3ccc2O)O[C@H](CO)[C@@H](O)[C@@H]1O [Compound 7] | 1 (≈ 0.511 µM) | 0.5 (≈ 0.255 µM) | >64 | 0.25 (≈ 0.128 µM) | 0.5 (≈ 0.255 µM) | – | – | – | – | – | – | – | –
4 | CC(=O)N[C@H]1[C@H](O[C@@H]2c3ccc(c(Cl)c3)Oc3cc4cc(c3O[C@@H]3O[C@H](CO)[C@@H](O)[C@H](O)[C@H]3NC(=O)CCCCCCC(C)C)Oc3ccc(cc3Cl)C[C@H]3NC(=O)[C@H](N)c5ccc(O)c(c5)Oc5cc(O)c(-c6ccoc6)c(c5)[C@H](NC3=O)C(=O)N[C@H]4C(=O)N[C@H]3C(=O)N[C@@H]2C(=O)N[C@H](C(=O)O)c2cc(O)cc(O[C@H]4O[C@H](CO)[C@@H](O)[C@H](O)[C@@H]4O)c2-c2cc3ccc2O)O[C@H](CO)[C@@H](O)[C@@H]1O [Compound 14] | 0.25 (≈ 0.128 µM) | 0.25 (≈ 0.128 µM) | >64 | 0.25 (≈ 0.128 µM) | 0.5 (≈ 0.257 µM) | higher potency | – | – | – | – | – | – | –
5 | CC(=O)N[C@H]1[C@H](O[C@@H]2c3ccc(c(Cl)c3)Oc3cc4cc(c3O[C@@H]3O[C@H](CO)[C@@H](O)[C@H](O)[C@H]3NC(=O)CCCCCCC(C)C)Oc3ccc(cc3-c3ccc(-c5ccccc5)cc3)C[C@H]3NC(=O)[C@H](N)c5ccc(O)c(c5)Oc5cc(O)cc(c5)[C@H](NC3=O)C(=O)N[C@H]4C(=O)N[C@H]3C(=O)N[C@@H]2C(=O)N[C@H](C(=O)O)c2cc(O)cc(O[C@H]4O[C@H](CO)[C@@H](O)[C@H](O)[C@@H]4O)c2-c2cc3ccc2O)O[C@H](CO)[C@@H](O)[C@@H]1O [Compound 19] | 4 (≈ 2 µM) | 8 (≈ 4.01 µM) | 8 (≈ 4.01 µM) | 0.5 (≈ 0.25 µM) | 0.25 (≈ 0.125 µM) | loss of potency | loss of potency | significant activity | – | – | – | – | –
6 | CC(=O)N[C@H]1[C@H](O[C@@H]2c3ccc(c(Cl)c3)Oc3cc4cc(c3O[C@@H]3O[C@H](CO)[C@@H](O)[C@H](O)[C@H]3NC(=O)CCCCCCC(C)C)Oc3ccc(cc3Cl)C[C@H]3NC(=O)[C@H](N)c5ccc(O)c(c5)Oc5cc(O)cc(c5)[C@H](NC3=O)C(=O)N[C@H]4C(=O)N[C@H]3C(=O)N[C@@H]2C(=O)N[C@H](C(=O)O)c2c(Br)c(O)cc(O[C@H]4O[C@H](CO)[C@@H](O)[C@H](O)[C@@H]4O)c2-c2cc3ccc2O)O[C@H](CO)[C@@H](O)[C@@H]1O [Compound 4] | 1 (≈ 0.511 µM) | 0.5 (≈ 0.255 µM) | >64 | 0.5 (≈ 0.255 µM) | 1 (≈ 0.511 µM) | – | – | – | – | – | – | – | –
7 | CC(=O)NC[C@H]1CN(c2ccc(N3CCOCC3)c(F)c2)C(=O)O1 [Linezolid, reference compound] | – | – | – | – | – | – | – | – | 4 (≈ 11.9 µM) | 4 (≈ 11.9 µM) | 2 (≈ 5.93 µM) | 2 (≈ 5.93 µM) | 2 (≈ 5.93 µM)
8 | CC(=O)N[C@H]1[C@H](O[C@@H]2c3ccc(c(Cl)c3)Oc3cc4cc(c3O[C@@H]3O[C@H](CO)[C@@H](O)[C@H](O)[C@H]3NC(=O)CCCCCCC(C)C)Oc3ccc(cc3Cl)C[C@H]3NC(=O)[C@H](N)c5ccc(O)c(c5)Oc5cc(O)cc(c5)[C@H](NC3=O)C(=O)N[C@H]4C(=O)N[C@H]3C(=O)N[C@@H]2C(=O)N[C@H](C(=O)O)c2cc(O)cc(O[C@H]4O[C@H](CO)[C@@H](O)[C@H](O)[C@@H]4O)c2-c2cc3ccc2O)O[C@H](CO)[C@@H](O)[C@@H]1O [Teicoplanin A2-2, reference compound] | 0.5 (≈ 0.266 µM) | 0.5 (≈ 0.266 µM) | >64 | 0.25 (≈ 0.133 µM) | 0.25 (≈ 0.133 µM) | – | – | – | – | – | – | – | –
9 | CC(=O)N[C@H]1[C@H](O[C@@H]2c3ccc(c(Cl)c3)Oc3cc4cc(c3O[C@@H]3O[C@H](CO)[C@@H](O)[C@H](O)[C@H]3NC(=O)CCCCCCC(C)C)Oc3ccc(cc3Cl)C[C@H]3NC(=O)[C@H](N)c5ccc(O)c(c5)Oc5cc(c(Br)c(O)c5Br)[C@H](NC3=O)C(=O)N[C@H]4C(=O)N[C@H]3C(=O)N[C@@H]2C(=O)N[C@H](C(=O)O)c2cc(O)c(Br)c(O[C@H]4O[C@H](CO)[C@@H](O)[C@H](O)[C@@H]4O)c2-c2cc3ccc2O)O[C@H](CO)[C@@H](O)[C@@H]1O [Compound 12] | 2 (≈ 0.945 µM) | 2 (≈ 0.945 µM) | >64 | 4 (≈ 1.89 µM) | 8 (≈ 3.78 µM) | – | – | – | – | – | – | – | –
10 | CC(=O)N[C@H]1[C@H](O[C@@H]2c3ccc(c(Cl)c3)Oc3cc4cc(c3O[C@@H]3O[C@H](CO)[C@@H](O)[C@H](O)[C@H]3NC(=O)CCCCCCC(C)C)Oc3ccc(cc3-c3ccoc3)C[C@H]3NC(=O)[C@H](N)c5ccc(O)c(c5)Oc5cc(O)cc(c5)[C@H](NC3=O)C(=O)N[C@H]4C(=O)N[C@H]3C(=O)N[C@@H]2C(=O)N[C@H](C(=O)O)c2c(Br)c(O)cc(O[C@H]4O[C@H](CO)[C@@H](O)[C@H](O)[C@@H]4O)c2-c2cc3ccc2O)O[C@H](CO)[C@@H](O)[C@@H]1O [Compound 16] | 0.5 (≈ 0.251 µM) | 0.5 (≈ 0.251 µM) | >64 | 0.25 (≈ 0.126 µM) | 0.5 (≈ 0.251 µM) | – | – | – | – | – | – | – | –
